Where a chain is given by its changes, count along the chain named. Calls of active or inactive are those of the source. No cut-off for these calls is given here.
Experiments:
[1] = tested on: HEK293; experiment: Activity of human GABA alpha-1-beta-2-gamma-2L S327A mutant in HEK293 cells expressing as-PKCepsilon assessed as inhibition of ethanol induced GABA current at 30 uM; format: cell-based
[2] = molecular target: T1, Gamma-aminobutyric acid receptor subunit alpha-1 (Homo sapiens) (UniProt P14867); details: HEK293
T1 sequence (whole entry): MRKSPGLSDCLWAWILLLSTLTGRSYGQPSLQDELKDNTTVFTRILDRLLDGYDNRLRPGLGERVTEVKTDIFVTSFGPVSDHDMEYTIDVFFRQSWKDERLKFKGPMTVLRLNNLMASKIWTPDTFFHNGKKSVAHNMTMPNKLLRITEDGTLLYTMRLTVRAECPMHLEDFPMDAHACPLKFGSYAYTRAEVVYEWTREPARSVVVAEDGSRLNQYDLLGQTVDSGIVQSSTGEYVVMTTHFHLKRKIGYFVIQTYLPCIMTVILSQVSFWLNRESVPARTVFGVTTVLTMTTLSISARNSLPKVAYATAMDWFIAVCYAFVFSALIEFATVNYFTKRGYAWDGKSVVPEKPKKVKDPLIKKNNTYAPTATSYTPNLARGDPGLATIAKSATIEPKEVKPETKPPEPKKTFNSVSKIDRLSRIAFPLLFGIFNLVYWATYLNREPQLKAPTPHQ

[3] = tested on: HEK293; details: Homo sapiens
[4] = molecular target: T2, GABA-A receptor; alpha-1/beta-2/gamma-2 (Homo sapiens) (UniProt P14867+P47870+P18507); details: HEK293
[5] = molecular target: T2, GABA-A receptor; alpha-1/beta-2/gamma-2 (Homo sapiens); details: HEK293; remark: listed apart in the source
[6] = tested on: HEK293; details: Homo sapiens; remark: listed apart in the source
[7] = tested on: HEK293; experiment: Activity of human GABA alpha-1-beta-2-gamma-2S327 receptor in HEK293 cells expressing as-PKCepsilon cells assessed as induction of ethanol induced GABA current; format: cell-based
[8] = molecular target: Protein kinase C gamma type (Homo sapiens, UniProt P05129); experiment: Inhibition of human PKCgamma
[9] = molecular target: Protein kinase C epsilon type (Homo sapiens, UniProt Q02156, M486A); experiment: (§1) Inhibition of human PKCepsilon type M486A mutant
[10] = molecular target: T3, Protein kinase C epsilon type (Homo sapiens, UniProt Q02156); experiment: Inhibition of human PKCepsilon
T3 sequence (Q02156 whole entry): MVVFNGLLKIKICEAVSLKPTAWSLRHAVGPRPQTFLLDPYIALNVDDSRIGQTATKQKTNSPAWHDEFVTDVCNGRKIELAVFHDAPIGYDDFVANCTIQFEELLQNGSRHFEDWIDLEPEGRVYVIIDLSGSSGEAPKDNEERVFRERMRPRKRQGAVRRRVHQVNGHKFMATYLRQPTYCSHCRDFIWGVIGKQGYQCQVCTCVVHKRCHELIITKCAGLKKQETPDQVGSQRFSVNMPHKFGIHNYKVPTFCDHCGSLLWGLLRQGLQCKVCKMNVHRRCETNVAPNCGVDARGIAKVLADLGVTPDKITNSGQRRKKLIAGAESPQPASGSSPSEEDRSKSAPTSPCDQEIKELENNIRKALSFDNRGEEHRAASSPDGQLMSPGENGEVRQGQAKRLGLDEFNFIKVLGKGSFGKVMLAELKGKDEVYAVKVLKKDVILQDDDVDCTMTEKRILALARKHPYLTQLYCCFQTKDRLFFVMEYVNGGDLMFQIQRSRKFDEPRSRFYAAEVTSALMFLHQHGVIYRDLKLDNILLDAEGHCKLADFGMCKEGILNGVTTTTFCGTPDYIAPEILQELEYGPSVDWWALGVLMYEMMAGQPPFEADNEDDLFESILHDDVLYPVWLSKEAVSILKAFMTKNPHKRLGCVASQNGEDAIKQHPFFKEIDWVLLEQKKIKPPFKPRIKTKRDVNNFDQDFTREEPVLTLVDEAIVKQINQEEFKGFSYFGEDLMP

[11] = molecular target: Protein kinase C delta type (Homo sapiens, UniProt Q05655); experiment: Inhibition of human PKCdelta
[12] = species: Mus musculus; experiment: Activity of human GABA alpha-1-beta-2-gamma-2S327 receptor in wild type mouse assessed as ethanol induced GABA current
[13] = tested on: Mus musculus; experiment: Induction of rotarod ataxia in PKCepsilon deficient mouse at 1 mg/kg; format: functional, organism-based; parameters: dose 1 mg/kg
[14] = tested on: T4, Protein kinase C epsilon type (Homo sapiens), Q02156 [M486A]; experiment: as §1
T4 sequence (whole entry): T3 sequence (Q02156 whole entry) with M486A

Protein kinase C epsilon type (Homo sapiens, UniProt Q02156, M486A), sequence (Q02156 whole entry M486A): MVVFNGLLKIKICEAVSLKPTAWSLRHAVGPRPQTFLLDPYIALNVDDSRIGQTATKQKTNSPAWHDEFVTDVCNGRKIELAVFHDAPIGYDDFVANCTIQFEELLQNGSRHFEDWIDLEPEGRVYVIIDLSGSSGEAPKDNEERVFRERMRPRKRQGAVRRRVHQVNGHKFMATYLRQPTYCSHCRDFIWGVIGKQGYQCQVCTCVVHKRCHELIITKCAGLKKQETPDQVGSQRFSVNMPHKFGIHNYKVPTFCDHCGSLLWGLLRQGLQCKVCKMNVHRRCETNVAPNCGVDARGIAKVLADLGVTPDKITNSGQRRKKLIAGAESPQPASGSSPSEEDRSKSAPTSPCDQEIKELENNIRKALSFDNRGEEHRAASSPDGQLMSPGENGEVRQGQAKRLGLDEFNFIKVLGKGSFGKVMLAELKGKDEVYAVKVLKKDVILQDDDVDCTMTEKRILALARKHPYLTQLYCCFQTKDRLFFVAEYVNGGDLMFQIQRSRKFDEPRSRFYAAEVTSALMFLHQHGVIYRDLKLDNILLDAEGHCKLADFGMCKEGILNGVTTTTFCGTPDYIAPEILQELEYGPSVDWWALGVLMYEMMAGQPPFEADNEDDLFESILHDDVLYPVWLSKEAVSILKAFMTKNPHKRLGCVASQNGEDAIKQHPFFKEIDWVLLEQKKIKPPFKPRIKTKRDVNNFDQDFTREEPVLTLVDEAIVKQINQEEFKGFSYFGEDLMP
Protein kinase C delta type, sequence (Q05655 whole entry): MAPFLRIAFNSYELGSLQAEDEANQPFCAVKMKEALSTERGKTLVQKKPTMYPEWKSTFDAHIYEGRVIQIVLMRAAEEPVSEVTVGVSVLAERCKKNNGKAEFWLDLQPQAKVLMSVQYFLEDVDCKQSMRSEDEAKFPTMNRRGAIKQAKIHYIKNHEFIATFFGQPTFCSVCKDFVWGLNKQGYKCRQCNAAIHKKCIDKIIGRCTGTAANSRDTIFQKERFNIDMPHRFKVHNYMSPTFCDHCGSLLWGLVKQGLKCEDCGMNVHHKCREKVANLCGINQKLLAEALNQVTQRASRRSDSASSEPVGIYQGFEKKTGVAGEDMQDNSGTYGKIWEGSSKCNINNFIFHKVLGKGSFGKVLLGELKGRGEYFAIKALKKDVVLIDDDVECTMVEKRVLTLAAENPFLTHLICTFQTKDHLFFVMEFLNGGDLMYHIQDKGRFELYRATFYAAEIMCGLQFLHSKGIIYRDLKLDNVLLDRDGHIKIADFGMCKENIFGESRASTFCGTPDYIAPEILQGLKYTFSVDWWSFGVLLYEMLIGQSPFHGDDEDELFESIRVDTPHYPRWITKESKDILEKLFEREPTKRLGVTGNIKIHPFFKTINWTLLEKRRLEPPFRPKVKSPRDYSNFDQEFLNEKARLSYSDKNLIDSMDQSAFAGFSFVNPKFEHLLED

`CN1CCc2cc3c(cc2[C@H]1[C@@H]1OC(=O)c2c1ccc1c2OCO1)OCO3` was tested, and the Activity [1] was “Active”.
Molecule `CN1C(=O)CN=C(c2ccccc2F)c2cc([N+](=O)[O-])ccc21` has a logEC50 [2] of 1.99, a logEC50 [3] of 1.59 and a logEC50 [4] of 1.46. For the same molecule, the logEC50 [5] was 1.46 and the logEC50 [6] was 1.8.
In the case of `CC(C)(C)n1nc(-c2cccc3ccccc23)c2c(N)ncnc21`, the Activity [7] is reported as “Active”, the IC50 [8] is reported as > 100000 nM and the IC50 [9] is reported as 21 nM. For the same molecule, the IC50 [10] was > 100000 nM and the IC50 [11] was > 100000 nM.
Work on `CN1C(=O)CN=C(c2ccccc2)c2cc(Cl)ccc21` yielded an Activity [12] of 75%.
For `Cc1ccc(-c2nc3ccc(C)cn3c2CC(=O)N(C)C)cc1`, the Activity [13] was “Active” and the Activity [14] was “Active”.
`CN(C)CCCn1cc(C2=C(c3c[nH]c4ccccc34)C(=O)NC2=O)c2ccccc21` [GF-109203] showed an IC50 [8] of 30 nM, an IC50 [9] of 12 nM and an IC50 [10] of 6 nM. It also gave an IC50 [11] of 32 nM.

— ChEMBL document CHEMBL1156516, “Protein kinase C epsilon regulates gamma-aminobutyrate type A receptor sensitivity to ethanol and benzodiazepines through phosphorylation of gamma2 subunits” (J Biol Chem, 2007)
